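The compound was tested at five concentrations on cells cultured in 96-well plates, with a 48-hour exposure period. At the GI50, growth is halved.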 The source made the active and inactive calls. Cut-off read from the data, not from the text of the source: active = GI50 up to about 1.1 µM and inactive = higher.
Tests used:
Assay in all cases: NCI-60 cell line screen, 48 h
[1] = tested on: 786-0
[2] = tested on: A549
[3] = tested on: ACHN
[4] = tested on: BT-549
[5] = tested on: CAKI-1
[6] = tested on: CCRF-CEM
[7] = tested on: COLO 205
[8] = tested on: DU-145
[9] = tested on: EKVX
[10] = tested on: HCC 2998
[11] = tested on: HCT-116
[12] = tested on: HCT-15
[13] = tested on: HOP-62
[14] = tested on: HT-29
[15] = tested on: Hs-578T
[16] = tested on: IGROV-1
[17] = tested on: K562
[18] = tested on: KM12
[19] = tested on: M14
[20] = tested on: MCF7
[21] = tested on: MDA-MB-231
[22] = tested on: MDA-MB-435
[23] = tested on: MDA-N
[24] = tested on: MOLT-4
[25] = tested on: Malme-3M
[26] = tested on: NCI-H226
[27] = tested on: NCI-H23
[28] = tested on: NCI-H460
[29] = tested on: NCI-H522
[30] = tested on: NCI/ADR-RES
[31] = tested on: OVCAR-3
[32] = tested on: OVCAR-4
[33] = tested on: OVCAR-5
[34] = tested on: OVCAR-8
[35] = tested on: PC-3
[36] = tested on: RPMI-8226
[37] = tested on: RXF 393
[38] = tested on: SF-268
[39] = tested on: SF-295
[40] = tested on: SK-MEL-28
[41] = tested on: SK-MEL-2
[42] = tested on: SK-MEL-5
[43] = tested on: SK-OV-3
[44] = tested on: SN12C
[45] = tested on: SNB-19
[46] = tested on: SNB-75
[47] = tested on: SW-620
[48] = tested on: T47D
[49] = tested on: TK-10
[50] = tested on: U-251
[51] = tested on: UACC-257
[52] = tested on: UACC-62
[53] = tested on: UO-31
[54] = tested on: A498
[55] = tested on: HL-60
[56] = tested on: LOX IMVI
[57] = tested on: SF-539
[58] = tested on: HOP-92

## CC1CC(=O)Nc2ccc(/N=N/N(C)C)cc2N1C=O (configuration not stated)
[1]
  GI50: > 100 µM (inactive)
[2]
  GI50: > 100 µM (inactive)
[3]
  GI50: > 100 µM (inactive)
[4]
  GI50: > 100 µM (inactive)
[5]
  GI50: > 100 µM (inactive)
[6]
  GI50: > 100 µM (inactive)
[7]
  GI50: > 100 µM (inactive)
[8]
  GI50: > 100 µM (inactive)
[9]
  GI50: > 100 µM (inactive)
[10]
  GI50: > 100 µM (inactive)
[11]
  GI50: > 100 µM (inactive)
[12]
  GI50: > 100 µM
[13]
  GI50: > 100 µM (inactive)
[14]
  GI50: > 100 µM (inactive)
[15]
  GI50: > 100 µM (inactive)
[16]
  GI50: > 100 µM (inactive)
[17]
  GI50: > 100 µM (inactive)
[18]
  GI50: > 100 µM (inactive)
[19]
  GI50: > 100 µM (inactive)
[20]
  GI50: > 100 µM (inactive)
[21]
  GI50: > 100 µM (inactive)
[22]
  GI50: > 100 µM (inactive)
[23]
  GI50: > 100 µM (inactive)
[24]
  GI50: > 100 µM (inactive)
[25]
  GI50: > 100 µM (inactive)
[26]
  GI50: > 100 µM (inactive)
[27]
  GI50: > 100 µM (inactive)
[28]
  GI50: > 100 µM (inactive)
[29]
  GI50: > 100 µM (inactive)
[30]
  GI50: > 100 µM (inactive)
[31]
  GI50: > 100 µM (inactive)
[32]
  GI50: > 100 µM (inactive)
[33]
  GI50: > 100 µM (inactive)
[34]
  GI50: > 100 µM (inactive)
[35]
  GI50: > 100 µM (inactive)
[36]
  GI50: > 100 µM (inactive)
[37]
  GI50: > 100 µM (inactive)
[38]
  GI50: > 100 µM (inactive)
[39]
  GI50: > 100 µM (inactive)
[40]
  GI50: > 100 µM (inactive)
[41]
  GI50: > 100 µM (inactive)
[42]
  GI50: > 100 µM (inactive)
[43]
  GI50: > 100 µM (inactive)
[44]
  GI50: > 100 µM (inactive)
[45]
  GI50: > 100 µM (inactive)
[46]
  GI50: > 100 µM (inactive)
[47]
  GI50: > 100 µM (inactive)
[48]
  GI50: > 100 µM (inactive)
[49]
  GI50: > 100 µM (inactive)
[50]
  GI50: > 100 µM (inactive)
[51]
  GI50: > 100 µM (inactive)
[52]
  GI50: > 100 µM (inactive)
[53]
  GI50: > 100 µM (inactive)

## CN1CN(c2ccccc2)C2(CCN(CCCN(C)c3ccc(F)cc3)CC2)C1=O
[1]
  GI50: 18.6 µM (inactive)
[54]
  GI50: 29.4 µM (inactive)
[2]
  GI50: 23.2 µM (inactive)
[3]
  GI50: 22.2 µM (inactive)
[4]
  GI50: 15.2 µM (inactive)
[5]
  GI50: 30.1 µM (inactive)
[6]
  GI50: 11.2 µM (inactive)
[7]
  GI50: 11.6 µM (inactive)
[8]
  GI50: 23.9 µM (inactive)
[11]
  GI50: 12.8 µM (inactive)
[12]
  GI50: 22.3 µM
[55]
  GI50: 3.21 µM (inactive)
[13]
  GI50: 17.7 µM (inactive)
[14]
  GI50: 10.1 µM (inactive)
[15]
  GI50: 18.7 µM (inactive)
[16]
  GI50: 16.5 µM (inactive)
[17]
  GI50: 1.58 µM (inactive)
[18]
  GI50: 16 µM (inactive)
[56]
  GI50: 15.8 µM (inactive)
[19]
  GI50: 16.2 µM (inactive)
[20]
  GI50: 15.2 µM (inactive)
[21]
  GI50: 14.3 µM (inactive)
[22]
  GI50: 18.2 µM (inactive)
[23]
  GI50: 16.3 µM (inactive)
[24]
  GI50: 5.02 µM (inactive)
[25]
  GI50: 19.5 µM (inactive)
[26]
  GI50: 19.1 µM (inactive)
[27]
  GI50: 19.1 µM (inactive)
[28]
  GI50: 16.4 µM (inactive)
[29]
  GI50: 13.9 µM (inactive)
[30]
  GI50: 20.6 µM (inactive)
[31]
  GI50: 16 µM (inactive)
[33]
  GI50: 17.3 µM (inactive)
[34]
  GI50: 18.9 µM (inactive)
[35]
  GI50: 23.4 µM (inactive)
[36]
  GI50: 10.7 µM (inactive)
[37]
  GI50: 16.3 µM (inactive)
[38]
  GI50: 20.3 µM (inactive)
[39]
  GI50: 14.9 µM (inactive)
[57]
  GI50: 22.5 µM (inactive)
[40]
  GI50: 20.9 µM (inactive)
[41]
  GI50: 17.5 µM (inactive)
[42]
  GI50: 16.2 µM (inactive)
[43]
  GI50: 17.1 µM (inactive)
[44]
  GI50: 34.5 µM (inactive)
[45]
  GI50: 20 µM (inactive)
[46]
  GI50: 16.9 µM (inactive)
[47]
  GI50: 17.8 µM (inactive)
[48]
  GI50: 16.7 µM (inactive)
[49]
  GI50: 18.9 µM (inactive)
[50]
  GI50: 18.6 µM (inactive)
[51]
  GI50: 17.8 µM (inactive)
[52]
  GI50: 18.7 µM (inactive)
[53]
  GI50: 16.2 µM (inactive)

## Cc1ccc(-n2nncc2[Si](C)(C)C)s1
[1]
  GI50: > 100 µM (inactive)
[54]
  GI50: > 100 µM (inactive)
[2]
  GI50: > 100 µM (inactive)
[3]
  GI50: > 100 µM (inactive)
[4]
  GI50: > 100 µM (inactive)
[5]
  GI50: > 100 µM (inactive)
[6]
  GI50: 22.6 µM (inactive)
[7]
  GI50: > 100 µM (inactive)
[8]
  GI50: > 100 µM (inactive)
[10]
  GI50: > 100 µM (inactive)
[11]
  GI50: > 100 µM (inactive)
[12]
  GI50: > 100 µM
[58]
  GI50: > 100 µM (inactive)
[14]
  GI50: > 100 µM (inactive)
[15]
  GI50: > 100 µM (inactive)
[17]
  GI50: > 100 µM (inactive)
[56]
  GI50: > 100 µM (inactive)
[19]
  GI50: > 100 µM (inactive)
[20]
  GI50: > 100 µM (inactive)
[21]
  GI50: > 100 µM (inactive)
[22]
  GI50: > 100 µM (inactive)
[23]
  GI50: > 100 µM (inactive)
[25]
  GI50: > 100 µM (inactive)
[26]
  GI50: > 100 µM (inactive)
[27]
  GI50: > 100 µM (inactive)
[28]
  GI50: > 100 µM (inactive)
[29]
  GI50: > 100 µM (inactive)
[30]
  GI50: > 100 µM (inactive)
[31]
  GI50: > 100 µM (inactive)
[32]
  GI50: > 100 µM (inactive)
[33]
  GI50: > 100 µM (inactive)
[34]
  GI50: > 100 µM (inactive)
[35]
  GI50: > 100 µM (inactive)
[36]
  GI50: > 100 µM (inactive)
[38]
  GI50: > 100 µM (inactive)
[39]
  GI50: > 100 µM (inactive)
[57]
  GI50: > 100 µM (inactive)
[40]
  GI50: > 100 µM (inactive)
[41]
  GI50: > 100 µM (inactive)
[42]
  GI50: > 100 µM (inactive)
[43]
  GI50: > 100 µM (inactive)
[44]
  GI50: > 100 µM (inactive)
[45]
  GI50: > 100 µM (inactive)
[47]
  GI50: > 100 µM (inactive)
[48]
  GI50: > 100 µM (inactive)
[49]
  GI50: > 100 µM (inactive)
[50]
  GI50: > 100 µM (inactive)
[51]
  GI50: > 100 µM (inactive)
[52]
  GI50: > 100 µM (inactive)
[53]
  GI50: > 100 µM (inactive)

From ChEMBL document CHEMBL1201862, “PubChem BioAssay data set” (2004)
